Results published in patent US20190195897A1, “GLYCOSYLATED METABOLITES” (UNIVERSITEIT LEIDEN, priority 2015, published 2019).

Columns and labels:
[1] = target: T1, recombinant GBA1 (rGBA1, Cerezyme) (Homo sapiens, UniProt P04062, R534H); assay: Degradation of GlcChol by rGBA1; format: biochemical
T1 construct: purchased Genzyme (Genzyme Nederland, Naarden, The Netherlands)
T1 sequence (P04062 40-536 R534H): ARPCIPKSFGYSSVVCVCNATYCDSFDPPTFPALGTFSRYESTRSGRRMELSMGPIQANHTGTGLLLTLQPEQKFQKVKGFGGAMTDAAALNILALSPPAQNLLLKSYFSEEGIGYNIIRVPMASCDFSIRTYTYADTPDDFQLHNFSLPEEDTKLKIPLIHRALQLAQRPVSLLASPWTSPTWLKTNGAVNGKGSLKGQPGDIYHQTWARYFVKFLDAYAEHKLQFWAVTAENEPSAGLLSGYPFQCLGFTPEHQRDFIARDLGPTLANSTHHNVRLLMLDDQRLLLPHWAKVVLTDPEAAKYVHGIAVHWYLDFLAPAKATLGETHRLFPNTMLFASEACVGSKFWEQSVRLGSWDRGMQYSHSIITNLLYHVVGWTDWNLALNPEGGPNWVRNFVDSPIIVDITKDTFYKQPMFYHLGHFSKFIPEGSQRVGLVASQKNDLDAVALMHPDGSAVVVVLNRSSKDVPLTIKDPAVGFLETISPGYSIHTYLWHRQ
Procedure: FIG. 1D: Linearity of GlcChol quantification and its complete digestion with rGBAl. (5 IU) for 60 min at 37 C.
The physiological significance of glucosylation of cholesterol is hypothetically great since it renders the molecule far more water soluble. To establish whether GlcChol physiologically occurs in mammals, firstly a LC-MS/MS procedure was developed for its quantitative detection. For this purpose, a ^13C-isotope labeled cholesterolglucoside was synthesized to be used as internal standard in sensitive quantitative detection of GlcChol by LC-MS/MS. The use of the isotope labeled compound as internal standard avoids the need for corrections for extraction efficiency, chromatographic behavior and ionization efficiency, during quantification GlcChol. […] The limit of detection (LOD) was 0.5 pmol/mL plasma, with a signal to noise ratio of 3 and a limit of quantitation (LOQ) of 0.9 pmol/mL plasma with a signal to noise ratio of 10.
Both GBA and GBA2, but not GBA3, are able to degrade by hydrolysis as well as synthesize GlcChol at conditions optimal for degradation of 4MU-8-glucoside (FIG. 1D; supplemental Table 1). […] This ability of the several GBA's to hydrolyze as well as synthesize GlcChol was studied in vitro using 25-NBD-cholesterol as acceptor and detection of 25-NBD-glucoside formation by TLC and fluorescence scanning. […]

GBA2 = target: T2, GBA2 (Mus musculus, UniProt Q69ZF3); assay: Degradation of GlcChol by GBA2; format: biochemical, murine; conditions: GBA2, input 18 nmol 4MU-β-Glc hydrolysis per ml/h
T2 construct: Myc-His (C); expressed in transfected cells; host or cells: COS-7 cells, used as homogenate/lysate
T2 sequence (Q69ZF3 1-918): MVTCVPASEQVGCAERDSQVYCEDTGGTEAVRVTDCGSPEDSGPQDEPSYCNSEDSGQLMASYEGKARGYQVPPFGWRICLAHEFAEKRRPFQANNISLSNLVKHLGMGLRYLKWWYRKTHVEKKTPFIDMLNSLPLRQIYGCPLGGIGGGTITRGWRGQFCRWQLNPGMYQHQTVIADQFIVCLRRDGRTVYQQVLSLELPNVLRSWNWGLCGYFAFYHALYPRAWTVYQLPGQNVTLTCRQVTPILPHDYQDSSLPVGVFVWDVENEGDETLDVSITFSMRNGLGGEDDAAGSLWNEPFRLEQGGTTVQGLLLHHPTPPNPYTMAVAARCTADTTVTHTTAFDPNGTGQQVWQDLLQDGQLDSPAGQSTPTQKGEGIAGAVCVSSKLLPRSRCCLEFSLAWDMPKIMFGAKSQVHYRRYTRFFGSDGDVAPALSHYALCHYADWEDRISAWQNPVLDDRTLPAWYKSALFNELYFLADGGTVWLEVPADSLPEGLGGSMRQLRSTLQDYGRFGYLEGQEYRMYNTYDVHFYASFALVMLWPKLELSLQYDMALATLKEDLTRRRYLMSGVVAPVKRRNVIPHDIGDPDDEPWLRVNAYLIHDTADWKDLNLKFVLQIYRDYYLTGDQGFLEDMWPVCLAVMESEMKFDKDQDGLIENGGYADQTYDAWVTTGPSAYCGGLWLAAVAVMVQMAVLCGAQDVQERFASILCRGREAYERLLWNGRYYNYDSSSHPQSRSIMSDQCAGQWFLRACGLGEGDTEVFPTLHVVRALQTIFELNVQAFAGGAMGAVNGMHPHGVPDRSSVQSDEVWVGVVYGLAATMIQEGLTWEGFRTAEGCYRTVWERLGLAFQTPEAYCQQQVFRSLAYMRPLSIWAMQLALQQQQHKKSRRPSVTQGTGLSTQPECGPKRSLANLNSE
Text: Both GBA and GBA2, but not GBA3, are able to degrade by hydrolysis as well as synthesize GlcChol at conditions optimal for degradation of 4MU-8-glucoside (FIG. 1D; supplemental Table 1). […] This ability of the several GBA's to hydrolyze as well as synthesize GlcChol was studied in vitro using 25-NBD-cholesterol as acceptor and detection of 25-NBD-glucoside formation by TLC and fluorescence scanning. As source of enzyme rGBA1 was used and GBA2 and GBA3 were individually overexpressed in COST-cells. Overexpression of enzymes was checked by measuring enzymatic activity with appropriate assays and visualization of enzymes with the broad-specificity β-glucopyranosyl cyclophellitolaziridine-type ABP (38). rGBA1 and lysates of GBA2 and GBA3 overexpressing cells were incubated with natural glucosylceramide (C16:0-GloCer or C18:1-GlcCer) as donors and 25-NBD-cholesterol as acceptor. […]
Homogenates of COS-7 cells overexpressing GBA2 and/or GCS, were analyzed for enzymatic activity of GBA2 using artificial 4MU-Glc substrate as earlier described (38). […] The reaction was terminated by addition of 1.25 mL stop-buffer (0.3 M Glycine/NaOH, pH 10.6) and the released 4MU was measured with a LS55 Fluorescence Spectrometer (Perkin-Elmer, Waltham, Mass., USA).

With `CC(C)CCC[C@@H](C)[C@H]1CC[C@H]2[C@@H]3CC=C4C[C@@H](O[C@@H]5O[C@H](CO)[C@@H](O)[C@H](O)[C@H]5O)CC[C@]4(C)[C@H]3CC[C@]12C` [GlcChol, 1-O-cholesteryl-β-D-glucopyranoside] as the compound, how does the “substrate for recombinant GBA1” value ([1]; even at sub-optimal conditions (absence of Triton-X-100 and sodium taurocholate)) read?
Its value is “excellent substrate”.

And the “Percentage digestion GlcChol after 1 h (10 nmole)” value ([1]; rGBA1, input 15 nmol 4MU-β-Glc hydrolysis per ml/h)?
The value was 95%.

What about the “Percentage digestion GlcChol after 1 h (10 nmole)” value (GBA2) of the same compound?
The value was 83%.
